We go through one molecule from PMC8843100, “Development of newly synthesised quinazolinone-based CDK2 inhibitors with potent efficacy against melanoma” (Journal of Enzyme Inhibition and Medicinal Chemistry, 2022).

Test [1] concerns glioblastoma cell line SNB-75. The test can be described thus: Detection of IC50, MTT assay. The note with it: Homo sapiens, read-out: IC50 (µM)±SD, 50% inhibition of cell viability, Glioblastoma SNB-75, 48 h. It is filed as cell-based. The procedure:
2. Detection of IC50 against MDA-MB-435, SNB-75 cell lines and normal cell line WI -38.
Antiproliferative activities of 5c in melanoma cell line MDA-MB-435, glioblastoma cell line SNB-75 and normal cell line WI -38 and that of 8a in melanoma cell line MDA-MB-435 and normal cell line WI-38 were measured spectrophotometrically using in vitro MTT based toxicology assay kit (catalog no. M -5655, M-8910) (Sigma Aldrich), according to the manufacturer’s protocol. The three examined cell lin es were obtained from American Type Culture Collection (ATCC). Briefly, cells were platted (cells density 1.2 – 1.8 × 10,000 cells/well) in a volume of 100 µl complete growth medium + 100 μl of the tested compound per well in a 96-well […]
salt solution without phenol red and serum.
A general note: Tetrazolium dyes change colour on reduction, which living cells bring about.

Test [2] has as its system melanoma MDA-MB-435 cells. The test can be described thus: Cell cycle analysis, PI flow cytometry. It is filed as cell-based, human. As to conditions: MDA-MB-435, after 24 h at IC50 concentration. The procedure:
10% of the culture medium volume. Cultures were returned to incubator for 2–4 h. After the incubation period, cultures were removed from incubator and the resulting formazan crystals were dissolved by adding an amount of MTT solubilization solution [M-8910] equal to the original culture medium volume. Dissolution is enhanced by gentle mixing in a gyratory shaker. Then the absorbance is measured spectrophotometrically at a wavelength of 450 nm. The absorbance of multiwell plates was measured at 690 nm and subtracted from the 450 nm measurement. IC50 values (concentration of sample causing 50% loss of cell proliferation of the vehicle control) were calculated using non-linear regression curve fitting of the dose response plots on GraphPad Prism 7.0 software. Data presented are the results of at least three independent experiments. The results of these studies are presented as mean IC50 (μM) ± standard deviation (SD).
Melanoma MDA -MB-435 and glioblastoma SNB-75 cells were treated with the quinazolinone 5c for 24 h (at its IC50 concentration), and then cells were washed twice with ice - cold phosphate buffered saline (PBS). Consequently, the treated cells were collected by centrifugation, fixed in ice -cold 70% (v/v) ethanol, washed with PBS, re -suspended with 100 μg/mL RNase, stained with 40 μg/mL propidium iodide (PI), and analyzed by flow cytometry using FACS Calibur (Becton Dickinson, BD, Franklin Lakes, NJ, USA). The cell cycle distributions were calculated using Cell Quest software 5.1 (Becton Dickinson). […]
For orientation: In flow cytometry, cells or beads pass a laser one at a time.

One may read the IC50 as the midpoint of a concentration-inhibition curve. Consider `O=c1c2ccccc2nc(COc2ccccc2)n1NS(=O)(=O)c1ccc(Cl)cc1` [Compound 5c, 4-chloro-N-(4-oxo-2-(phenoxymethyl)quinazolin-3(4H)-yl)benzenesulfonamide], for which the IC50 in test [1] came out at 8.62 ± 0.13 µM. For the same molecule, in test [2], the “%G0-G1” value was found to be 55.29%, the “%G2/M” value came to 3.74%, the “%Pre-G1” value turned out to be 28.65% and the “%S” value was 40.97%. Besides, the “Comment (cell cycle)” value in test [2] is “Pre G1 apoptosis and cell growth arrest at S”.
